In US20070078262A1, “Thiomorpholino steroid compounds, the use thereof for the preparation of meiosis-regulating medicaments and method for the preparation thereof” (SCHERING AKTIENGESELLSCHAFT, priority 2003, published 2007):
Values joined by “and” are separate entries in the source; they are usually repeats but may differ in a detail not shown here. Equal entries are not always repeated.

Columns and labels:
mouse oocytes = test: In vitro fertilization (IVF) after in vitro maturation of oocytes; assay type: cell-based, mice (C57BL/6J×DBA/2J F1); conditions: in vitro maturation without hypoxanthine, then IVF; n=18
Method: Changes in the subsequent IVF are therefore probably due to effects of the test compounds on cytoplasmic maturation.
Immature female mice (C57BL/6J×DBA/2J F1) in the age of 21-24 days were used as oocyte donors. Animals were given an i.p. injection of 10 IU pregnant mare serum gonadotropin (PMSG) to induce follicular growth. Animals were killed by cervical dislocation 48 hours later and the ovaries were dissected out. As sperm donors eight week old male mice (C57BL/6J×DBA/2J F1) were used.
Oocytes were isolated from the ovaries by manual rupture of the follicles using a pair of 27-gauge needles. Spherical naked oocytes (NkO) and CEOs displaying an intact GV were selected and placed in α-minimum essential medium (α-MEM without ribonucleosides, Gibco BRL, Gaithersburg; Cat. No. 22561) supplemented with 8 mg/ml human serum albumin (HSA), 0.23 mM pyruvate, 2 mM glutamine, 100 IU/ml penicillin and 100 μg/ml streptomycin.
The oocytes were rinsed three times in culture medium without oil overlay in 4-well multidishes containing 0.4 ml of the respective oocyte culture medium.
The oocyte culture medium was supplemented with 6.4% Fetal Bovine Serum (FBS). Solutions of novel compound IA and of the two compounds in comparison as mentioned were prepared from a stock solution containing 1 mg/ml of compound dissolved in absolute ethanol. The control group was cultured with a corresponding amount of ethanol.
After a culture time of 18-19 hours oocytes were further processed for in vitro fertilization. […] Oocytes were briefly washed without any test compound and subsequently transferred to the insemination dishes prepared in advance, which contained approximately 600.000 capacitated sperm cells per 500 μl IVF medium (obtained from the epididymides of male mice). The dishes were then incubated under defined gas conditions (5% CO2 in air) at 37° C. in a modified α-MEM IVF medium supplemented with 8 mg/ml HSA, 0.23 mM pyruvate, 100 IU penicillin/ml and 100 μg streptomycin/ml as described above for oocyte maturation.
Examination of the oocytes was carried out 22-24 hours after insemination in order to check fertilization and to record the number of pronucleus (PN) and 2-cell stage embryos. The fertilization rate was determined as the number of oocytes that had reached the PN or 2-cell embryo stage, relative to the total number inseminated.

[1] = system: in vitro fertilized ova (2-cell embryos); test: Retransfer study / fertility trial (in vitro fertilized 2-cell embryos transferred into foster mothers); assay type: in vivo, mice; conditions: for No. of Implantation Spots: Odds / No. of Viable Fetuses: Odds: successes divided by failures; for No. of Implantation Spots: Failures: transferred ova minus implantation spots; for No. of Viable Fetuses: Failures: transferred ova minus viable fetuses; for Odds Ratio for comparison to FF-MAS, No. of Implantation Spots / Odds Ratio for comparison to FF-MAS, No. of Viable Fetuses: versus FF-MAS 10 μM; for shows significant improvement of odds versus vehicle control, number of implantation spots: 95% confidence interval of odds ratio, all doses tested
Method: In vitro fertilization was performed as described above for the IVF experiment.
One day before the retransfer female recipient mice (foster mothers) in pro-estrus cycle state were mated with vasectomized males in order to trigger pseudogestation. One day later a vaginal check was performed. Animals with a positive, sperm-free vaginal plug (successful mating) entered the study. This day was designated day 0 of gestation (=day 0 after the sterile copulation, day 0 p.c.). […] 2-cell embryos were transferred into the right tube of the foster mothers on day 0 after the sterile copulation under anesthesia. The contra-lateral tube remained unused (check for pseudogestation). The foster mothers were sacrified on day 19 of gestation. The fetuses were removed and examined. The ovaries and uteri were removed immediately to record the number of implantation sites, viable and dead fetuses and resorptions. Apparently non-pregnant uteri were placed in a 10% aqueous solution of ammonium sulfide for about 10 min to stain possible implantation sites in the endometrium. The viable fetuses were individually weighed and their sex determined by inspection of their gonads.
In a fertility trial 269 mice were randomized into 6 groups and implanted with 7-10 in vitro fertilized ova. The in vitro fertilization took place in the presence of vehicle (group 1) or of a substance (groups 2 to 6).
The fertility raising effect of the substances in comparison to the vehicle control was of main interest. Moreover, an improvement compared to the substance FF-MAS was also investigated.
Variables of primary interest are the number of implantation spots and the number of viable fetuses.
The data for implantation spots as well as for viable fetuses have to be considered to have binary character, i.e. it can be expressed in rates or in a number of successes and failures with respect to the number of transferred ova. Therefore, methods as outlined by D. Collett: “Modelling Binary Data”, 2nd edition, Chapman & Hall/CRC, Boca Raton, constitute appropriate approaches to the data analysis.
The odds ratio of one group as compared to the other is defined as: odds ratio (group 1, group 2)=or1,2=odds (group 1)/odds (group 2)
where the odds of a group can be estimated by the number of successes divided by the number of failures in that group.
To reach statements about the significance of any findings, 95% confidence-intervals for the odds ratios are computed as: [ exp(log(or1,2)[…]1.96·se(log(or1,2))); exp(log(or1,2)+1.96·se(log(or1,2)))]
wherein se(log(or1,2)) is the standard error of the log odds ratio (see D. Collett (2003) for the corresponding formula).
As a basis for the computation of odds ratios, the number of successes (i.e., the number of implantation spots of number of viable fetuses) and failures (i.e., the number of transferred ova minus the number of implantation spots or number of viable fetuses) are computed for all groups.

[2] = system: Cumulus Enclosed Oocytes (CEOs); test: Cumulus enclosed oocyte assay (meiosis activation in Hx-medium); assay type: cell-based, mice (C57BL/6J×DBA/2J F1); conditions: for Meiosis Activation [%]: in the presence of Hx in CEOs
Source text: Activation of MI arrested oocytes can be assessed by the disappearance of the germinal vesicle (GV). The disappearance of the GV, called germinal vesicle breakdown (GVB) is followed by the extrusion of the first polar body (PB) (C. Grøndahl, J. L. Ottesen, M. Lessi, P. Faarup, A. Murray, F C Grønvald, C. Hegele-Hartung, I. Ahnfelt-Rønne, “Meiosis-activating sterol promotes resumption of meiosis in mouse oocytes cultured in vitro in contrast to related oxysterols”, Biol. Reprod., 58, 1297-1302 (1998); C. Hegele-Hartung, J. Kuhnke, M. Lessi, C. Grøndahl, J. Ottesen, H. M. Beier, S. Eisner, U. Eichenlaub-Ritter, “Nuclear and cytoplasmic maturation of mouse oocytes after treatment with synthetic meiosis-activating sterol in vitro”, Biol. Reprod., 61, 1362-1372 (1999)).
Cumulus Enclosed Oocytes (CEOs) were obtained from immature female mice (C57BL/6J×DBA/2J F1) weighing 13-16 grams, that were kept under controlled temperature (20-22° C.), light (lights on 06:00-18:00) and relative humidity (50-70%). The mice received an intra-peritoneal injection of 0.2 ml gonadotropins containing 20 IU FSH. 48 hours later the animals were killed by cervical dislocation. The ovaries were dissected out and the oocytes were isolated in Hx-medium (see below) under a stereomicroscope by manual rupture of the follicles using a pair of 27-gauge needles. Cumulus enclosed oocytes displaying an intact germinal vesicle were placed in α-minimum essential medium (α-MEM without ribonucleosides supplemented with 8 mg/ml Human Serum Albumin (HSA), 0.23 mM pyruvate, 2 mM glutamine, 100 IU/ml penicillin and 100 μg/ml streptomycin). To maintain the oocytes in the germinal vesicle stage this medium was supplemented with 3 mM hypoxanthine, designated as Hx-medium.
The CEOs (35-45 CEOs in 0.4 ml Hx-medium) were cultured in a humidified atmosphere of 5% CO2 in air for 24 hours at 37° C. One control well (identical medium with no addition of test compound) was always cultured simultaneously with test wells.
By the end of the culture period the number of CEOs with germical vesicle (GV), germinal vesicle breakdown (GVB) and polar bodies (PB), respectively, were counted. The % GVB, defined as the percentage of CEOs undergoing GVB per total number of CEOs in that well, was calculated as: % GVB=(number of GVB+number of PB/total number of CEOs)×100
The % PB was defined as the percentage of CEOs displaying one extruded polar body per total number of CEOs in that well.
For each compound two experiments were performed and the results compared to Hx-medium as a control and FF-MAS at a concentration of 10 μM.

rat oocytes (CEO and DO) = conditions: micromolar concentrations; CEO and DO cultured in vitro; cited from earlier work
[3] = Solubility in water (measured by turbimetry)
follicle culture system = test: Follicle culture system (induction of maturation); assay type: cell-based
[4] = 10 μM, Table 1, two experiments per compound, FF-MAS run in parallel

C[C@H](CN1CCCCC1)[C@H]1CC=C2C3=C(CC[C@@]21C)[C@@]1(C)CC[C@H](O)C(C)(C)[C@@H]1CC3 [Compound No. 2, (20S)-20-[(piperidin-1-yl)methyl]-4,4-dimethyl-5α-pregna-8,14-dien-3β-ol]
fertilization rates of mouse oocytes compared to vehicle control (FIG. 3) (mouse oocytes): higher fertilization rates | No. of Implantation Spots: Success ([1]; 1 μM): 97 | No. of Viable Fetuses: Success ([1]; 1 μM): 32 | Odds Ratio for comparison to vehicle control, No. of Implantation Spots ([1]; 1 μM): 1.09 | Odds Ratio for comparison to vehicle control, No. of Viable Fetuses ([1]; 1 μM): 0.98 | No. of Implantation Spots: Odds ([1]; 1 μM): 0.27 | No. of Viable Fetuses: Odds ([1]; 1 μM): 0.08 | No. of Implantation Spots: Failures ([1]; 1 μM): 357 | No. of Viable Fetuses: Failures ([1]; 1 μM): 422 | Odds Ratio for comparison to FF-MAS, No. of Implantation Spots ([1]; 1 μM): 0.91 | Odds Ratio for comparison to FF-MAS, No. of Viable Fetuses ([1]; 1 μM): 0.66 | No. of Implantation Spots: Success ([1]; 10 μM): 90 | No. of Viable Fetuses: Success ([1]; 10 μM): 37 | Odds Ratio for comparison to vehicle control, No. of Implantation Spots ([1]; 10 μM): 1.08 | Odds Ratio for comparison to vehicle control, No. of Viable Fetuses ([1]; 10 μM): 1.24 | No. of Implantation Spots: Odds ([1]; 10 μM): 0.27 | No. of Viable Fetuses: Odds ([1]; 10 μM): 0.10 | No. of Implantation Spots: Failures ([1]; 10 μM): 332 | No. of Viable Fetuses: Failures ([1]; 10 μM): 385 | Odds Ratio for comparison to FF-MAS, No. of Implantation Spots ([1]; 10 μM): 0.91 | Odds Ratio for comparison to FF-MAS, No. of Viable Fetuses ([1]; 10 μM): 0.83 | shows significant improvement of odds versus vehicle control, number of implantation spots [1]: Neither | Meiosis Activation [%] ([2]; 10 μM, Table 2): 48%

C[C@H](CN1CCSCC1)[C@H]1CCC2=C3CC[C@H]4C[C@@H](O)CC[C@]4(C)[C@H]3CC[C@@]21C [Compound IE, (20S)20-[(thiomorpholin-4-yl)methyl]-5α-pregna-8(14)-en-3β-ol]
Meiosis Activation [%] ([2]; 1 μM, Table 2): 44% | Meiosis Activation [%] ([2]; 3 μM, Table 2): 24% | Meiosis Activation [%] [2, 4]: 96% and 80% | Meiosis Activation [%] ([2]; 10 μM, Table 2): 60% | efficiency of meiosis activation among the compounds tested ([2]; CEOs in the presence of Hx): the most efficient compound tested

C[C@H](CN1CCSCC1)[C@H]1CC=C2C3=C(CC[C@@]21C)[C@@]1(C)CC[C@H](O)C[C@@H]1CC3 [Compound IC, (20S)-20-[(thiomorpholin-4-yl)methyl]-5α-pregna-8,14-dien-3β-ol]
Meiosis Activation [%] [2, 4]: 64% and 69%

C[C@H](CN1CCSCC1)[C@H]1CC[C@H]2C3=CC=C4C(C)(C)[C@@H](O)CC[C@]4(C)[C@H]3CC[C@]12C [Compound ID, (20S)-20-[(thiomorpholin-4-yl)methyl]-4,4-dimethyl-pregna-5,7-dien-3β-ol]
Meiosis Activation [%] [2, 4]: 89% and 58%

CC(C)=CCC[C@@H](C)[C@H]1CC=C2C3=C(CC[C@@]21C)[C@@]1(C)CC[C@H](O)C(C)(C)[C@@H]1CC3 [FF-MAS, 4,4-dimethyl-5α-cholesta-8,14,24-trien-3β-ol]
fertilization rates of mouse oocytes compared to vehicle control (FIG. 3) (mouse oocytes): higher fertilization rates | No. of Implantation Spots: Success ([1]; 10 μM): 100 | No. of Viable Fetuses: Success ([1]; 10 μM): 45 | Odds Ratio for comparison to vehicle control, No. of Implantation Spots ([1]; 10 μM): 1.19 | Odds Ratio for comparison to vehicle control, No. of Viable Fetuses ([1]; 10 μM): 1.49 | No. of Implantation Spots: Odds ([1]; 10 μM): 0.30 | No. of Viable Fetuses: Odds ([1]; 10 μM): 0.12 | No. of Implantation Spots: Failures ([1]; 10 μM): 335 | No. of Viable Fetuses: Failures ([1]; 10 μM): 390 | shows significant improvement of odds versus vehicle control, number of implantation spots [1]: Neither | implantation rate per transferred 2-cell embryos (FIG. 4) ([1]; FF-MAS 10 μM, compound IA 1 μM and 10 μM): higher numbers | resumption of meiosis in rat oocytes arrested by IBMX (rat oocytes (CEO and DO)): able to induce resumption of meiosis in a dose-dependent manner | solubility [3]: < 0.1 µg/mL | Meiosis Activation [%] ([2]; 10 μM, Table 2): 24% | induction of maturation / activation of meiosis in a follicle culture system (follicle culture system): not able to induce maturation

C[C@H](CN1CCSCC1)[C@H]1CCC2=C3CC[C@H]4C(C)(C)[C@@H](O)CC[C@]4(C)[C@H]3CC[C@@]21C [Compound IB, (20S)-20-[(thiomorpholin-4-yl)methyl]-4,4-dimethyl-5α-pregna-8(14)-en-3β-ol]
Meiosis Activation [%] [2, 4]: 15%
